Article PMC3948749, “Engineering of Pyranose Dehydrogenase for Increased Oxygen Reactivity” (PLoS ONE, 2014)

How the values were obtained:
[1] = biological target: T1, AmPDH (Agaricus meleagris pyranose dehydrogenase, pdh1) (Macropsalliota meleagris, UniProt Q3L245, H128Y); assay: steady-state kinetics; assay type: biochemical; details: apparent; electron acceptor; 25 mM D-glucose as donor; pH 4; 30 °C; read-out: H103Y / K m /
T1 construct: monomeric glycoprotein about 90 kDa, 64 kDa deglycosylated
Description: steady-state kinetics on AmPDH (Agaricus meleagris pyranose dehydrogenase, pdh1)

[2] = biological target: T2, AmPDH (Agaricus meleagris pyranose dehydrogenase, pdh1) (Macropsalliota meleagris, UniProt Q3L245); assay: UV-vis spectra before and after TCA/acetone precipitation; assay type: binding; details: covalent (to H103); pH 7.5 spectra
T2 construct: monomeric glycoprotein about 90 kDa, 64 kDa deglycosylated

[3] = biological target: T1, AmPDH (Agaricus meleagris pyranose dehydrogenase, pdh1); assay: as above; assay type: binding; details: non-covalent, tightly bound; pH 7.5 spectra
[4] = biological target: T1, AmPDH (Agaricus meleagris pyranose dehydrogenase, pdh1); assay: steady-state kinetics, ferrocenium assay; assay type: biochemical; details: apparent; electron acceptor; 25 mM D-glucose as donor; pH 8.5; 30 °C; read-out: H103Y / K m /
Description: steady-state kinetics, ferrocenium assay on AmPDH (Agaricus meleagris pyranose dehydrogenase, pdh1)

T1 sequence (Q3L245 26-602 H128Y): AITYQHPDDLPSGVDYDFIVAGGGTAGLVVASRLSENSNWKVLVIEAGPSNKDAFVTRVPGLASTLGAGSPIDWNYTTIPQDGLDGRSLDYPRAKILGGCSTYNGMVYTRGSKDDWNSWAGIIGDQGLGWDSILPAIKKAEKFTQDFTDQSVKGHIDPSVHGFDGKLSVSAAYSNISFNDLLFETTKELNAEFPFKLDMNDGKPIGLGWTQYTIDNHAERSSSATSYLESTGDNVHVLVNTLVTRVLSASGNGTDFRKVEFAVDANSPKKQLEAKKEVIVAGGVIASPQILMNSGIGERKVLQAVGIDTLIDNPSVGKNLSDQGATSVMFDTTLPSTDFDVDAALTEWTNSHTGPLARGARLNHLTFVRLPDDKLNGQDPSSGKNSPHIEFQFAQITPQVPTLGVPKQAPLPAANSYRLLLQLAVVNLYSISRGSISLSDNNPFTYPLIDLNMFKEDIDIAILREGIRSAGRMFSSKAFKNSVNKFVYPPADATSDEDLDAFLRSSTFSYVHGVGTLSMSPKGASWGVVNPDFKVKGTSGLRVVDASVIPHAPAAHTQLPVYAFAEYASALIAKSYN
T2 sequence (Q3L245 26-602): as the sequence (Q3L245 26-602 H128Y) above, with Y103H counted along it

O=C1C=CC(=O)C=C1 [1,4-BQ, 1,4-benzoquinone]
Km [1]: 3640 ± 470 µM

Cc1cc2nc3c(=O)[nH]c(=O)nc-3n(C[C@H](O)[C@H](O)[C@H](O)COP(=O)(O)OP(=O)(O)OC[C@H]3O[C@@H](n4cnc5c(N)ncnc54)[C@H](O)[C@@H]3O)c2cc1C [FAD]
UV-vis spectra before and after TCA/acetone precipitation [2]: the wild-type protein did not release the covalently bound FAD
UV-vis spectra before and after TCA/acetone precipitation [3]: the variant H103Y carries a tightly but non-covalently bound FAD cofactor

F[P-](F)(F)(F)(F)F.[Fe+3].c1cc[cH-]c1.c1cc[cH-]c1 [Fc+PF6, ferrocenium hexafluorophosphate]
Km [4]: 100 ± 10 µM
